The test system of series [1] is TNFα. The series can be described thus: Human skin organ culture with UVB stressor, TNFα secretion in the medium. It counts as cell-based. As to conditions: UVB. The method, then: (§1) Topical exposure till 48 hours in total (24 hr recovery following topical application+24 hr after exposure to UVB irradiation) with UVB radiation as stressor on human skin model
(§2) The following general procedure was used in the study:
(§3) Day 1: Topical application of 3 μl of each sample solution on the epidermis of each skin explant. Incubate for 24 hours. SDS 10% was applied only once, and was not farther irradiated with UVB.
(§4) Day 2: Skin explants were washed once with PBS and irradiated with UVB lamp at 200 mJ/cm2. After radiation it was incubated for 30 min and then topically apply each treatment (sample solution) again. Control was not irradiated under UVB light. UVB radiated control was without any treatment except radiation.
(§5) Day 3: Viability and Caspase3 activity were measured for the epidermis layer. The medium was collected for cytokines test.
FIG. 4 illustrates the TNFα secretion results in the medium as observed with 2 to 4 repetition of the tests. In FIG. 4 the TNFα secretion of the irradiated sample “UVB” was selected as 100% and it equals 53±30 pg/ml.

Series [2] relates to human primary fibroblasts. The series can be described thus: Hyaluronic acid production assay (ELISA). In kind it is cell-based. As to conditions: Retinol 1.0 μM in the culture media; 48 hours. The method, then:
The human primary fibroblast cell culture was grown at an 80% confluence in Dulbecco's Modified Eagle's High glucose (Hg) medium (DMEM) culture medium containing 10% fetal bovine serum, 100 U/ml penicillin, and 100 U/ml streptomycin. The cells were cultivated in 6 wells plates.
The pRetinol complex was added at a final concentrations of. Osmoter 0.2%, Dunaliella salina extract 1.2%, Niacinimide 0.04% and 6.24 ppm of β-Carotene i.e., 2.5 times dilution (the dilution was necessary in view of the human primary fibroblast cells culture being more sensitive than skin full organ culture). Retinol was added to the medium at a final concentration of 1.0 μM.
The cells were incubated at 37° C., 5% CO2 at a 100% RH for 48 hours. After incubation the cells were extracted using RIPA buffer collected to a blending Eppendorf and ground using stain steal beads and a bullet blender for 5 min. The samples were centrifuged for 15 min at 5000 rpm and the supernatant was collected.
BCA Protein concentration assay were performed on all the samples. The protein level for all samples was dilated to reach a concentration of 0.1 ng/ml of protein, diluted with PBS. Samples contain a protein concentration of 0.1 ng/ml were tested for hyaluronic ELISA assay kit (R&D systems, ELISA kit). Results were obtained as ng/ml of hyaluronic acid per 1 μg of protein. […]

The test system of series [3] is human skin explants (epidermis). The series can be described thus: Human skin organ culture with UVB stressor, viability by MTT assay. In kind it is cell-based. As to conditions: UVB 200 mJ/cm2, topical 3 μl before and after irradiation, 48 hours in total; compared to irradiated control. The method, then:
as §1, §2, §3, §4, §5
FIG. 2 illustrates a flow diagram of topical exposure/treatment till 48 hours, 24 hr recovery following topical application +24 hr after exposure to UVB irradiation) with UVB radiation as stressor on human skin model experiment. In the Experiment the SDS irritation control sample was a skin explant that was topical applied with 3 μl SDS 10% solution at day 1 only.
The viability of the various skin explants was measured by the 5-dimethylthiazol-2-yl]-2,5-diphenyl tetrazolium bromide (MTT) assay.
In general terms: Tetrazolium assays rely on reduction of a dye to a coloured formazan, in cell work by metabolically active cells.

The next series deals with skin equivalents. The series can be described thus: DNA microarray gene expression in skin equivalents, comparative with 3D complex and Retinol (Example 6). It counts as cell-based, human. The note with it: Retinol 5 μM. The method, then:
In the present study the biological activity on gene expression of the pRETINOL complex was compared to the activity of a composition which was previously described in [13] and [14] and referred to herein as 3D complex. The activity was further compared to that observed with Retinol (5 μM of Retinol in double distilled water).
On each array, treated vs. untreated samples were compared. Each array was processed and the data from all arrays was normalized to get the average expression and log fold change (log FC) for each gene on each array.
An analysis of full human genome was performed.
Further to the above analysis, similar to the study presented in Example 5, major skin related pathways were selected from KEGG and wiki pathways list and the p-value and z-score were calculated for these pathways.

The test system of series [4] is human skin explants (epidermis). The series can be described thus: Human skin organ culture without UVB stressor, topical exposure till 96 hours, viability by MTT assay. It counts as cell-based. As to conditions: no UVB; 96 hours of topical application; vs control. The method, then: (§6) Topical Exposure Till 96 Hours without External UVB Radiation as Stressor on Human Skin Model
(§7) Day 1: Topical application of 3 μl of each solution on the epidermis of each skin explant. Incubate for 24 hours. (SDS Irritation control: topical application of 3 ul SDS 10% was applied on the skin model at day 1 only. The rest of the days samples were untouched).
(§8) Day 2: Topical application of 3 μl of each solution on the epidermis of each skin explant. Incubate for 24 hours in fresh medium (medium was not collected). (UVB control: after 24 hours incubation with 3 μl H2O skin was irradiated with 200 mJ/cm2 UVB. The rest of the experiment days sample were topically applied with H2O, as control).
(§9) Day 3: Topical application of 3 μl of each solution on the epidermis of each skin explant. Incubate for 24 hours in fresh medium (medium was collected)—48 hours of total topical incubation.
(§10) Day 4: Topical application of 3 μl of each solution on the epidermis of each skin explant. Incubate for 24 hours in fresh medium (medium was collected)—72 hours of total topical incubation.
Day 5: Topical application of 3 μl of each solution on the epidermis of each skin explant. Incubate for 24 hours in fresh medium (medium was collected)—96 hours of total topical incubation. MTT assay was performed. […]
The viability of the various skin explants was measured by the MTT assay.

For series [5], the system named is IL-1α. The series can be described thus: Human skin organ culture with UVB stressor, IL-1α secretion in the medium. It counts as cell-based. As to conditions: UVB. The method, then:
as §1, §2, §3, §4, §5
FIG. 5 illustrates the IL-1α secretion results in the medium as observed with 3 to 4 repetition of the tests. In FIG. 5 the IL-1α secretion of the irradiated sample “UVB” was selected as 100% and it equals 8.1±1.0 pg/ml.

For series [6], the system named is IL-1α. Briefly: Human skin organ culture without UVB stressor, IL-1α secretion. It counts as cell-based. As to conditions: no UVB; Retinol 1.0%; 48, 72 and 96 hours. The method, then: as §6, §7, §8, §9, §10
(§11) Day 5: Topical application of 3 μl of each solution on the epidermis of each skin explant. Incubate for 24 hours in fresh medium (medium was collected)—96 hours of total topical incubation. MTT assay was performed.
FIG. 9A illustrates the IL-1α secretion results in the medium. In FIG. 9A the IL-1α secretion of the H2O sample was used as a control (9.0±0.7 pg/ml […]) for each time point. FIG. 9B is a magnification of FIG. 9A.

Series [7] deals with TNFα. The series can be described thus: Human skin organ culture without UVB stressor, TNFα secretion. It counts as cell-based. As to conditions: no UVB. The method, then:
as §6, §7, §8, §9, §10, §11
FIG. 8 illustrates the TNFα secretion tested results. In FIG. 8 the TNFα secretion of the H2O sample was used as a control (0.35±0.05 pg/ml) for each time point.

SMILES strings stand for the structures. “Also recorded” adds a separate entry of the source.

With `CC1=C(/C=C/C(C)=C/C=C/C(C)=C/CO)C(C)(C)CCC1` [Retinol], the results for the “reduction of TNFα secretion compared to the irradiated sample” value in the series with TNFα [1] (Retinol 0.5% (w/w) in EtOH) and in the series with TNFα [1] (Retinol 1.0% (w/w) in EtOH) were 56% and 45%, respectively. Also, the “production of hyaluronic acid compared to the control sample” value in series [2] is listed as “induce the production of hyaluronic acid”. In addition, in series [3], the “viability (MTT, mitochondrial activity) of epidermis” value is given as “increased mitochondrial activity”. Besides, the z-score is 1.0758 in the series on skin equivalents (KEGG_APOPTOSIS); −0.2818 with skin equivalents (KEGG_BASE_EXCISION_REPAIR); −0.4673 in the series with skin equivalents (KEGG_NF_KAPPA_B_SIGNALING_PATHWAY); −0.3502 with skin equivalents (KEGG_NOD-LIKE_RECEPTOR SIGNALING PATHWAY); −0.6417 in the series on skin equivalents (KEGG_SPHINGOLIPID_METABOLISM); −1.1097 with skin equivalents (KEGG_TNF_SIGNALING_PATHWAY). The z-score turned out to be 1.5054 with skin equivalents (KEGG_YERSINIA_INFECTION) and 10.548 in the series with skin equivalents (WIKI_KERATINIZATION). Also, the “viability (MTT, mitochondrial activity) of skin explants” value in series [4] was “did not cause increase or reduction of viability”. Moreover, the “increase of IL-1α secretion” value in the series on IL-1α [5] (Retinol 0.05% (w/w) in EtOH) is recorded as 83%; in the series on IL-1α [5] (Retinol 0.5% (w/w) in EtOH), 50%; in the series on IL-1α [5] (Retinol 1.0% (w/w) in EtOH) it was 53%. The IL-1α secretion result in the series with IL-1α [6] is “increased; also recorded: caused an increase”. For the same compound, the TNFα secretion entry in the series on TNFα [7] (Retinol 0.5%, after incubation of 72 hours, H2O control 0.35±0.05 pg/ml) was “below the detection level”; in the series with TNFα [7] (Retinol 1.0%, after incubation of 72 hours, H2O control 0.35±0.05 pg/ml), “below the detection level”; in the series with TNFα [7] (Retinol for 48, 72 and 96 hours, reduction also observed with ethanol only), “caused a reduction”.
